Data on 21 molecules can be found in patent US20050059639A1, “Ophthalmic compositions and method for treating eye discomfort and pain” (priority 2003, published 2005).

The test system of series [1] is stinging and burning sensations on the eye. Description: Adjuncts to reduce stinging of trialkyl phosphine oxide eye drops. The format is in vivo, human. As for the experimental part:
I conclude that hydrocarbon polyols are useful adjuncts for preparing a therapeutic formulation of a trialkyl phosphine oxide eye drop solution.
(§1) A 0.2% (2.0 mg/ml) disec-butyl-n-heptyl-phosphine oxide eye drop solution was prepared by adding the compound to an isotonic solution of sodium chloride, 0.65% in deionized water, monobasic potassium phosphate/sodium hydroxide buffer, preserved with disodium EDTA and benzalkonium chloride. The liquid was individually aliquoted into a ¼ oz. bottle with a Yorker spout (E.D. Luce Packaging) suitable for droplet delivery. This solution was then applied to the closed eyes of three volunteers, with two to three drops of the solution applied to each eye. The subjects complained of stinging and burning sensations on the eye surface, lasting for about 2 min. A series of six solutions were then prepared in which six different hydrocarbon polyols were added to the parent 0.2% solution. The individual additions were 1.5% sucrose, 1.5% fructose, 1.5% dextrose, 1.5% lactose, 1.5% inositol, or 0.5% carboxymethylcellulose. […] There was some tearing, but no evidence of increased eye redness from the hydrocarbon polyols and subjective complaints of discomfort were minimal.

For series [2] the test system is unchanged. The series is described as above. The format is in vivo, human. The source holds these as a separate data set.
Series [3] concerns tongue of human volunteers. Description: Cooling sensations when applied to the tongue of human volunteers. It counts as in vivo. The note with it: for Duration of Action: duration of the cooling action on the tongue; for Relative Potency: reciprocal of threshold, normalized to unity for analogs with 1.25 μg/ml; for Threshold: threshold for producing cooling sensations on the tongue of human volunteers. How it is done:
(§2) The therapeutic concentrations of the preferred analogs are in the range of 10 to 80 μg/ml […], but concentrations as low as 0.1 μg/ml may elicit effects in sensitive individuals.

For series [4], the system named is medial canthus of the eyelids. Nature of the series: Sensory quality of the solution on the medial canthus of the eyelids / eye surface. The format is in vivo, human. Particulars: for Sensory Quality: solution applied on the medial canthus of the eyelids. From the text:
[table] In selecting a particular analog, it is desirable to have one that has a long duration of action (several hours) and minimal stinging and burning sensations. These parameters are not predicted by the cooling effect of these substances on the human tongue, but must be determined by experiment. […] Thus, the hexyl analog is the preferred therapeutic of the two. The other particularly preferred analogs that have the desired qualities of long duration of action and absence of stinging and burning effects are identified with an asterisk in Table 1.

A further series concerns eye disorders. Description: Estimate of ideal therapeutic eye drop concentration to relieve eye disorders. It counts as in vivo, human. Particulars: for Eye Therapy: estimate of ideal therapeutic concentration applied as eye drops to relieve eye disorders. As for the experimental part: as §2
The potency of certain specific trialkyl phosphine oxides, e.g. isopropyl, sec-butyl, n-octyl-phosphine oxide, in relieving eye discomfort is exceptionally high, on the order of 0.001%. In such situations, an alternative preferred description of an effective unit dose is 0.01 mg/ml or 10 μg/ml, which is equivalent to 0.001% weight percent.

The subject of series [5] is closed eyes of volunteers. Description: Eye drops applied to medial canthus of closed eyes, kept closed about 1 min. The format is in vivo, human. Particulars: 0.2% (2.0 mg/ml) solution, 2-3 drops, closed eyes, three volunteers. How it is done: For trialkyl phosphine oxide eye drop solutions of this invention, I have discovered an indirect method of application as follows. The eye dropper is aimed at the medial canthus (nasal corner) of the eye, the eye is then closed, the dispenser is squeezed to emit the eye drops, and the eye kept closed for about 1 min. This method of application can substantially avoid stinging and burning sensations. Apparently, the adaptation period of about 1 min allows the sensory processes to develop tolerance to the initial stinging and burning stimuli. For example, if a 0.4 mg/ml solution of disec-butyl, n-hexyl-phosphine oxide [synonym, 1-(Di-sec-butyl-phosphinoyl)-hexane] in isotonic-buffered saline is dropped on the open eye, it causes stinging and burning for about 1 min. However, applied onto the corners of the eye, with the eyes closed for 1 min, these stinging and burning sensations are avoided. The medial canthus is preferred to the lateral canthus because the geometry of the orbit permits a longer residence time for the eye drop applied to the medial corner. Drops applied to the lateral canthus are less precisely located and rapidly dribble off the zygoma (cheekbone). A user can be instructed in this indirect method by including the instructions on packaging labels and/or inserts associated with the doses.
The solution, as in Example 1, was then used by another three subjects with the instruction to apply the droplets to the nasal corner of the eye (medial canthus), without touching the tip of the dispenser to the eyelid surface, to let the solution seep into the eyelids and eye surface but to keep eyes closed for at least one minute. The subjects reported slight sensations of stinging when the eyes were opened, effects that lasted for less than 1 minute, followed by sensations of coolness and comfort lasting at least two hours. The experiment was then repeated, but with a higher concentration of 0.2% of disec-butyl-n-hexyl-phosphine oxide.
as §1

Marks after values point to notes of the source that are not given here.

`O=C(CO)[C@@H](O)[C@H](O)[C@H](O)CO` [fructose]: the “effect of adjunct on initial stinging sensations” value in series [1] (added to 0.2% disec-butyl-n-heptyl-phosphine oxide solution, 1.5% (0.5% for carboxymethylcellulose)) is “reduce the initial stinging sensations”. In addition, the “effect of adjunct on stinging and burning sensations of several trialkyl phosphine oxide solutions” value in series [2] (1 to 2% sucrose, other carbohydrates, 0.5% carboxymethylcellulose, sucralose at equivalent sweetening concentrations) is reported as “substantially reduced”.

For `CCCP(=O)(CCC)CCC(C)C` [i-C5H11 / n-C3H7 / n-C3H7], in series [3], the “Duration of Action” value was 5 min, the “Relative Potency” value is reported as under 0.005 and the Threshold is over 250 µg/mL. The “Sensory Quality” value in series [4] was “cool/sting”. Besides, the “Eye Therapy” value in the series with eye disorders was over 1500 µg/mL.

In the case of `O[C@H]1[C@H](O)[C@@H](O)[C@H](O)[C@@H](O)[C@H]1O` [inositol], the “effect of adjunct on initial stinging sensations” value in series [1] (in vivo) was “reduce the initial stinging sensations”. In addition, the “effect of adjunct on stinging and burning sensations of several trialkyl phosphine oxide solutions” value in series [2] (in vivo) was “substantially reduced”.

Regarding `CCC(C)P(=O)(CCC(C)C)CCC(C)C` (stereo not drawn) [iso-C5H11 / iso-C5H11 / sec-C4H9, di-isopentyl-sec-butyl phosphine oxide], in series [3], the “Duration of Action” value was determined as 5 min, the “Relative Potency” value amounted to 0.06 and the Threshold is 20 µg/mL. The “Sensory Quality” value in series [4] was “cool/sting”. Besides, the “Eye Therapy” value in the series on eye disorders is over 150 µg/mL.

Regarding `OC[C@H]1O[C@@H](O[C@H]2[C@H](O)[C@@H](O)C(O)O[C@@H]2CO)[C@H](O)[C@@H](O)[C@H]1O` (stereo partly drawn) [lactose], the “effect of adjunct on initial stinging sensations” value in series [1] (in vivo) was “reduce the initial stinging sensations”.

Take `CCCCCP(=O)(CC)CCCCC` [n-C5H11 / n-C5H11 / n-C2H5]: in series [3], the “Duration of Action” value stood at 5 min, the “Relative Potency” value is under 0.008 and the Threshold was over 150 µg/mL. Moreover, the “Sensory Quality” value in series [4] was “cool/sting”. Moreover, in the series on eye disorders, the “Eye Therapy” value is over 1000 µg/mL.

Consider `CCCCCCP(=O)(C(C)C)C(C)CC` (stereo not drawn) [n-C6H13 / iso-C3H7 / sec-C4H0], for which, in series [3], the “Duration of Action” value is listed as 45 min, the “Relative Potency” value is recorded as 2.5 and the Threshold turned out to be 0.5 µg/mL. For the same molecule, in series [4], the “Sensory Quality” value is “cool/sting”. Besides, the “Eye Therapy” value in the series with eye disorders was 15 µg/mL.

As to `CCCCCCP(=O)(CCC(C)C)C(C)C` (stereo not drawn) [n-C6H13 / iso-C5H11 / iso-C3H7], in series [3], the “Duration of Action” value was 5 min, the “Relative Potency” value stood at 1 and the Threshold was determined as 1.25 µg/mL. For the same molecule, the “Sensory Quality” value in series [4] is reported as “cool only”. Moreover, in the series with eye disorders, the “Eye Therapy” value is recorded as 25* μg/ml.

For the molecule `CCCCCCP(=O)(CC)CCCCCC` [n-C6H13 / n-C6H13 / n-C2H5], in series [3], the “Duration of Action” value turned out to be 5 min, the “Relative Potency” value worked out at 0.06 and the Threshold was found to be 20 µg/mL. Further, the “Sensory Quality” value in series [4] is “cool/sting”. In addition, the “Eye Therapy” value in the series on eye disorders was over 150 µg/mL.

With `CCCCCCP(=O)(CCC)C(C)(C)C` (stereo not drawn) [n-C6H13 / tert-C4H9 / n-C3H7], in series [3], the “Duration of Action” value was determined as 7.5 min, the “Relative Potency” value came to 0.36 and the Threshold came out at 3.5 µg/mL. The “Sensory Quality” value in series [4] is listed as “cool only”. Also, the “Eye Therapy” value with eye disorders is recorded as 30* μg/ml.

As for `CCCCCCP(=O)(CCCC)C(C)(C)C` (stereo not drawn) [n-C6H13 / tert-C4H9 / n-C4H9], in series [3], the “Duration of Action” value amounted to 5 min, the “Relative Potency” value is given as 0.8 and the Threshold is 1.5 µg/mL. In addition, the “Sensory Quality” value in series [4] was “cool only”. In the series with eye disorders, the “Eye Therapy” value is on record as 25* μg/ml.

Regarding `CCCCCCCP(=O)(C(C)C)C(C)CC` (stereo not drawn) [n-C7H15 / iso-C3H7 / sec-C4H9], in series [3], the “Duration of Action” value came to 18 min, the “Relative Potency” value is on record as 10 and the Threshold was determined as 0.1 µg/mL. Moreover, the “Sensory Quality” value in series [4] is “cool only”. For the same molecule, the “Eye Therapy” value with eye disorders is 10* μg/ml.

As to `CCCCCCCP(=O)(CCC(C)C)C(C)C` (stereo not drawn) [n-C7H15 / iso-C5H11 / iso-C3H7], in series [3], the “Duration of Action” value was 5 min, the “Relative Potency” value is listed as 1 and the Threshold is 1.25 µg/mL. In addition, the “Sensory Quality” value in series [4] is on record as “cool/oily”. Moreover, in the series with eye disorders, the “Eye Therapy” value was 20* μg/ml.

As for `CCCCCCCP(=O)(CCCCCCC)C(C)(C)C` [n-C7H15 / n-C7H15 / tert-C4H9], in series [3], the “Duration of Action” value worked out at 10 min, the “Relative Potency” value came to 0.06 and the Threshold amounted to 20 µg/mL. For the same molecule, the “Sensory Quality” value in series [4] is listed as “cool/sting”. Besides, in the series with eye disorders, the “Eye Therapy” value was over 150 µg/mL.

For the molecule `CCCCCCCP(=O)(C(C)CC)C(C)CC` (stereo not drawn) [n-C7H15 / sec-C4H9 / sec-C4H9, disec-butyl-n-heptyl-phosphine oxide], in series [3], the “Duration of Action” value was 10 min, the “Relative Potency” value is 0.8 and the Threshold worked out at 1.5 µg/mL. The “potency on the human tongue (comparison of the two analogs)” value in series [3] (hexyl vs heptyl analog) is on record as “about equipotent”. In series [4] (eye surface), the “activity in producing stinging and burning sensations relative to hexyl analog” value was “three times more active”; the “duration of action on the eye surface relative to hexyl analog” value is “half the duration of action”. The “Sensory Quality” value in series [4] is on record as “cool/sting”. In addition, in the series on eye disorders, the “Eye Therapy” value is 15 µg/mL. Moreover, the “duration of stinging and burning sensations on the eye surface” value in series [5] is recorded as “about 2 min”.

Turning to `CCCCCCCCP(=O)(C(C)C)C(C)CC` (stereo not drawn) [n-C8H17 / iso-C3H7 / sec-C4H9, isopropyl, sec-butyl, n-octyl-phosphine oxide], in series [3], the “Duration of Action” value is on record as 18 min, the “Relative Potency” value worked out at 10 and the Threshold was 0.1 µg/mL. In addition, in series [4], the “Sensory Quality” value is on record as “cool only”. Also, the “Eye Therapy” value with eye disorders is listed as 10* μg/ml. In the series on eye disorders (weight percent, equivalent to 10 μg/ml), the “potency in relieving eye discomfort” value is about 0.001%.

For `CCCCCCCCP(=O)(CCCCCC)CCCCCC` [n-C8H17 / n-C6H13 / n-C6H13], in series [3], the “Duration of Action” value stood at 10 min, the “Relative Potency” value was under 0.005 and the Threshold was over 250 µg/mL. Further, the “Sensory Quality” value in series [4] is on record as “cool/sting”. Moreover, the “Eye Therapy” value in the series with eye disorders is over 1500 µg/mL.

`CCCCCCCCP(=O)(C(C)CC)C(C)CC` (stereo not drawn) [n-C8H17 / sec-C4H9 / sec-C4H9]: in series [3], the “Duration of Action” value worked out at 10 min, the “Relative Potency” value amounted to 2.5 and the Threshold came out at 0.5 µg/mL. The “Sensory Quality” value in series [4] was “cool/sting”. The “Eye Therapy” value in the series with eye disorders was 30 µg/mL.

`CCCCCCCCCP(=O)(CC(C)C)CC(C)C` [n-C9H19 / iso-C4H9 / iso-C4H9]: in series [3], the “Duration of Action” value is on record as 15 min, the “Relative Potency” value stood at 0.025 and the Threshold amounted to 50 µg/mL. For the same molecule, the “Sensory Quality” value in series [4] is “cool/sting”. Further, the “Eye Therapy” value with eye disorders was over 250 µg/mL.

As to `CCCCCCCCCCP(=O)(CCC(C)C)CCC(C)C` [n-C10H21 / iso-C5H11 / iso-C5H11], in series [3], the “Duration of Action” value is recorded as 10 min, the “Relative Potency” value was under 0.005 and the Threshold was over 250 µg/mL. Moreover, the “Sensory Quality” value in series [4] is listed as “cool/sting”. Moreover, the “Eye Therapy” value in the series with eye disorders was over 1500 µg/mL.

For `OC[C@H]1O[C@H](O[C@]2(CCl)O[C@H](CCl)[C@@H](O)[C@@H]2O)[C@H](O)[C@@H](O)[C@H]1Cl` [sucralose, reference compound], the “effect of adjunct on stinging and burning sensations of several trialkyl phosphine oxide solutions” value in series [2] (in vivo) is given as “not active”.
